{
  "source": "patent US11642344B2",
  "about": "“Cholesteryl ester transfer protein (CETP) inhibitor and pharmaceutical compositions comprising said inhibitor for use in the treatment or prevention of cardiovascular diseases” (NewAmsterdam Pharma B.V., priority 2014, dated 2023)",
  "key": {"[1]": {"system": "HDL-C, LDL-C, total cholesterol, triglycerides", "experiment": "Clinical repeated dose study: HDL-C, LDL-C, total cholesterol, triglycerides and secondary lipid variables", "assay_type": "in vivo, human", "conditions": "for Maximum % change from baseline in HDL-C concentration / Maximum % change from baseline in LDL-C concentration / Maximum % change from baseline in Total cholesterol / Maximum % change from baseline in Triglycerides: repeated oral doses, steady state, mean", "method": "(§1) The clinical study was a repeated dose study in 5 groups of Caucasian male subjects aged 18 to 55 years. Each subject received a single oral dose of Compound A/placebo on Day 1, followed by once daily doses on Days 8 to 35 (5 mg Compound A/placebo—Group 1) or Days 8 to 28 (1, 2.5, 10 and 25 mg Compound A/placebo—Groups 2 to 5). All doses were administered at the study center after a standard breakfast. Subjects in each dose group were allocated to study treatment in a ratio of 10 Compound A to 2 placebo. Blood samples for pharmacokinetic and pharmacodynamic (CETP activity, CETP concentration, HDL-C, LDL-C, total cholesterol, triglycerides) assessments were collected from prior to each dose and at intervals throughout the study until 336 hours after the last dose. Secondary pharmacodynamic endpoints (including apolipoproteins A1, A2, B, and E, HDL2-C, HDL3-C, phospholipids, HDL-free cholesterol [HDL-FC], HDL-cholesteryl ester [HDL-CE], HDL-phospholipids [HDL-PL], HDL-triglycerides [HDL-TG], and LDL particle size) were measured at intervals until the last day of dosing. Urine was collected for pharmacokinetics from pre dose and at intervals up to 72 hours after the first and last dose. Safety assessments including adverse events, blood pressure and pulse rate, ECGs, laboratory safety tests (including aldosterone) and physical examinations were conducted throughout both studies.\n(§2) Plasma and urine concentrations of Compound A were determined using validated liquid chromatography with tandem mass spectrometry (LC/MS/MS) methods. The lower limit of quantification (LLQ) for both assays was 0.500 ng/mL. Plasma concentration of CETP was determined using a validated enzyme-linked immunosorbent assay (ELISA) method with a lower limit of quantification (LLQ) of 0.500 μg/mL. CETP activity was determined as the rate of [^3H]-labeled CE transfer from donor HDL to acceptor VLDL/LDL. [^3H]CE-labeled HDL was added to human plasma and incubated for 4 hours at 37° C. Non-HDL lipoproteins were precipitated and separated from HDL, and the amount of radioactivity in the supernatant was quantitated. CETP activity was determined as the difference of the radioactivity between the samples incubated at 37° C. and 4° C. HDL-C and LDL-C were measured by homogenous enzymatic colorimetric assay using a Modular analyser (Roche Diagnostics). Total cholesterol and triglycerides were measured by homogenous enzymatic assay using a Modular analyser (cholesterol oxidase peroxidase-peroxidase aminophenazone phenol [CHOP-PAP]) method and a glycerol phosphate oxidase [GPO-PAP] method, respectively. ApoA1, ApoA2, ApoB and ApoE were measured by immunoturbidimetry using reagents from Rolf Greiner Biochemica (Germany) and N-apoprotein standard serum from Siemens (Germany). LDL particle size was determined by gradient gel electrophoresis. HDL fraction was separated by a combined ultracentrifugation-precipitation method (Beta-quantification). HDL-2 and HDL-3 fractions were then separated by further ultracentrifugation. Total-cholesterol in HDL, HDL-2 and HLD-3 fractions, free cholesterol in HDL fraction, triglycerides in HDL fraction and phospholipids in plasma and HDL-fraction were measured using enzymatic methods and reagents from Diasys Diagnostics (Germany). The measurements were performed on an Olympus AU600 automatic analyzer and were calibrated using secondary standards from Roche Diagnostics (Total-cholesterol, triglycerides) and Diasys Diagnostics (free cholesterol, phospholipids), respectively. Esterified cholesterol was calculated as the difference between total-cholesterol and free cholesterol.\n(§3) The sample sizes for the study were chosen based on practical considerations rather than statistical power. The numbers of subjects in each group were considered to be adequate to assess the main objectives of each study. Subjects were allocated to Compound A or placebo in each group by means of a computer-generated randomization code. […]"}, "CETP": {"molecular_target": "T1, CETP (Homo sapiens, UniProt P11597)", "T1 construct": "from tissue; host or cells: plasma of Caucasian male subjects dosed with Compound A or placebo", "T1 sequence (P11597 18-493)": "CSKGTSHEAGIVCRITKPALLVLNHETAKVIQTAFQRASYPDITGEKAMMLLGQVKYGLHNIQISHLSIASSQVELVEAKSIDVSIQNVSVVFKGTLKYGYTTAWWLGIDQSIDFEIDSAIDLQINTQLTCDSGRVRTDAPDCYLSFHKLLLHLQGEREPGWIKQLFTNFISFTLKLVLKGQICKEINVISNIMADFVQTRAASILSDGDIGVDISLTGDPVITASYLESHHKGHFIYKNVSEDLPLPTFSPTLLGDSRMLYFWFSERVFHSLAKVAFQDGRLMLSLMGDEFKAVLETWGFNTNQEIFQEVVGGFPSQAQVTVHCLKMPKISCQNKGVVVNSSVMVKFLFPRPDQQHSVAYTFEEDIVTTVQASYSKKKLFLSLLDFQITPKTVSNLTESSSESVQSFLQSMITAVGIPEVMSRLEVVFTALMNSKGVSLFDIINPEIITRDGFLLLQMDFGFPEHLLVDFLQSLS", "experiment": "Clinical repeated dose study: plasma CETP activity", "assay_type": "in vivo", "conditions": "for Maximum % change from baseline in CETP activity: repeated oral doses, steady state, mean", "method": "as §1, §2, §3"}},
  "data": [
    {"smiles": "CCOC(=O)N1c2ccc(C(F)(F)F)cc2[C@@H](N(Cc2cc(C(F)(F)F)cc(C(F)(F)F)c2)c2ncc(OCCCC(=O)O)cn2)C[C@H]1CC", "note": "[Compound A, {4-[(2-{[3,5-bis(trifluoromethyl)benzyl][(2R,4S)-1-(ethoxycarbonyl)-2-ethyl-6-(trifluoromethyl)-1,2,3,4-tetrahydroquinolin-4-yl]amino}pyrimidin-5-yl)oxy]butanoic acid}]", "values": [
      {"measurement": "Maximum % change from baseline in HDL-C concentration", "setting": "[1]; 1 mg once daily", "value": 37.9, "unit": "%"},
      {"measurement": "Maximum % change from baseline in LDL-C concentration", "setting": "[1]; 1 mg once daily", "value": "−29.6", "unit": "%"},
      {"measurement": "Maximum % change from baseline in Total cholesterol", "setting": "[1]; 1 mg once daily", "value": "−12.7", "unit": "%"},
      {"measurement": "Maximum % change from baseline in Triglycerides", "setting": "[1]; 1 mg once daily", "value": "−50.2", "unit": "%"},
      {"measurement": "Maximum % change from baseline in HDL-C concentration", "setting": "[1]; 2.5 mg once daily", "value": 95.6, "unit": "%"},
      {"measurement": "Maximum % change from baseline in LDL-C concentration", "setting": "[1]; 2.5 mg once daily", "value": "−39.1", "unit": "%"},
      {"measurement": "Maximum % change from baseline in Total cholesterol", "setting": "[1]; 2.5 mg once daily", "value": "−7.9", "unit": "%"},
      {"measurement": "Maximum % change from baseline in Triglycerides", "setting": "[1]; 2.5 mg once daily", "value": "−45.8", "unit": "%"},
      {"measurement": "Maximum % change from baseline in HDL-C concentration", "setting": "[1]; 5 mg once daily", "value": 118, "unit": "%"},
      {"measurement": "Maximum % change from baseline in LDL-C concentration", "setting": "[1]; 5 mg once daily", "value": "−41.7", "unit": "%"},
      {"measurement": "Maximum % change from baseline in Total cholesterol", "setting": "[1]; 5 mg once daily", "value": "−1.4", "unit": "%"},
      {"measurement": "Maximum % change from baseline in Triglycerides", "setting": "[1]; 5 mg once daily", "value": "−20.3", "unit": "%"},
      {"measurement": "Maximum % change from baseline in HDL-C concentration", "setting": "[1]; 10 mg once daily", "value": 140, "unit": "%"},
      {"measurement": "Maximum % change from baseline in LDL-C concentration", "setting": "[1]; 10 mg once daily", "value": "−43.6", "unit": "%"},
      {"measurement": "Maximum % change from baseline in Total cholesterol", "setting": "[1]; 10 mg once daily", "value": 3.7, "unit": "%"},
      {"measurement": "Maximum % change from baseline in Triglycerides", "setting": "[1]; 10 mg once daily", "value": "−22.2", "unit": "%"},
      {"measurement": "Maximum % change from baseline in HDL-C concentration", "setting": "[1]; 25 mg once daily", "value": 136, "unit": "%"},
      {"measurement": "Maximum % change from baseline in LDL-C concentration", "setting": "[1]; 25 mg once daily", "value": "−53.2", "unit": "%"},
      {"measurement": "Maximum % change from baseline in Total cholesterol", "setting": "[1]; 25 mg once daily", "value": 7.5, "unit": "%"},
      {"measurement": "Maximum % change from baseline in Triglycerides", "setting": "[1]; 25 mg once daily", "value": "−31.4", "unit": "%"},
      {"measurement": "changes in LDL particle size", "setting": "[1]; repeated doses 1 to 25 mg", "value": "no noteworthy changes"},
      {"measurement": "Maximum % change from baseline in CETP activity", "setting": "CETP; 1 mg once daily, Caucasian male healthy subjects", "value": "−66.5", "unit": "%"},
      {"measurement": "Maximum % change from baseline in CETP activity", "setting": "CETP; 2.5 mg once daily", "value": "−91.6", "unit": "%"},
      {"measurement": "Maximum % change from baseline in CETP activity", "setting": "CETP; 5 mg once daily", "value": "−90.9", "unit": "%"},
      {"measurement": "Maximum % change from baseline in CETP activity", "setting": "CETP; 10 mg once daily", "value": "−97.6", "unit": "%"},
      {"measurement": "Maximum % change from baseline in CETP activity", "setting": "CETP; 25 mg once daily", "value": "−99.4", "unit": "%"},
      {"measurement": "CETP activity below baseline after last dose", "setting": "CETP; 2 weeks following 10 and 25 mg dosing", "value": "approximately 50%"},
      {"measurement": "CETP activity after the last dose (in words)", "setting": "CETP; by 2 weeks following the lowest dose (1 mg)", "value": "approaching baseline levels"},
      {"measurement": "time to maximum effect on CETP inhibition", "setting": "CETP; once daily dosing, each dose", "value": "≤ 1", "unit": "week"},
      {"measurement": "CETP inhibition (in words)", "setting": "CETP; repeated once daily dosages as low as 2.5 mg", "value": "near complete CETP-inhibition"}
    ]}
  ]
}
